Here are results for 10 compounds from ChEMBL document CHEMBL1151506, “Carboxyl-promoted enhancement of selectivity for the 3 adrenergic receptor. Negative charge of the sulfonic acid BMS-187413 introduces-3 binding selectivity” (Bioorg Med Chem Lett, 1997).

SMILES strings stand for the structures.

The target of experiment [1] is T1, Beta-3 adrenergic receptor (Homo sapiens, UniProt P13945). Kind of experiment: Effective concentration for stimulation of adenylyl cyclase activity in CHO-beta3 AR expressing cell membranes. The experiment is classed as functional.
Target sequence in this assay (P13945 whole entry): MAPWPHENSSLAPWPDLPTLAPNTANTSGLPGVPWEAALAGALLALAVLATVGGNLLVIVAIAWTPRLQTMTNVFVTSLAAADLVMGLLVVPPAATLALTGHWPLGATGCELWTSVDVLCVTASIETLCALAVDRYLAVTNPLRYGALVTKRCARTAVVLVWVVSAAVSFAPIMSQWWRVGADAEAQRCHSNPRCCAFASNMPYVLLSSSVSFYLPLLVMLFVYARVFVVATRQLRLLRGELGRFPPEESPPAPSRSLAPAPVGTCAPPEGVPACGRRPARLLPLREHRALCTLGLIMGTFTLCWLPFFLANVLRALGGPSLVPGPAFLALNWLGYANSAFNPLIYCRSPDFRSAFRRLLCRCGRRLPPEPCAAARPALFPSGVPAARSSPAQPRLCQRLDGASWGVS
For experiment [2], the target named is T1, Beta-3 adrenergic receptor. Kind of experiment: Intrinsic activity as maximal cyclase activity in CHO-beta3 AR cell membranes compared to (-)-isoproterenol. The experiment is classed as functional, cell-based.
Target sequence in this assay (P13945 whole entry, looked up): as the sequence (P13945 whole entry) above
Experiment [3] addresses T1, Beta-3 adrenergic receptor. The experiment can be described thus: Ability to bind to human Beta-3 adrenergic receptor using membranes of stably transfected CHO cells. Type of experiment: cell-based.
Target sequence in this assay (P13945 whole entry): as above
Experiment [4] deals with Beta-2 adrenergic receptor (Homo sapiens, UniProt P07550). Kind of experiment: Ability to bind to human Beta-2 adrenergic receptor using membranes of stably transfected CHO cells. Type of experiment: cell-based.
For experiment [5], the target named is Beta-2 adrenergic receptor and beta-3 adrenergic receptor (Homo sapiens) (UniProt P07550+P13945). The experiment can be described thus: Binding selectivity ratio for beta 3 over beta 2 AR (S beta3/beta2). The experiment is classed as protein assay.
Experiment [6] deals with Beta-1 adrenergic receptor (Homo sapiens, UniProt P08588). The experiment can be described thus: Ability to bind to human Beta-1 adrenergic receptor using membranes of stably transfected CHO cells. Type of experiment: cell-based.
Experiment [7] addresses Adrenergic receptor beta; ADRB1 & ADRB3 (Homo sapiens) (UniProt P08588+P13945). Kind of experiment: Binding selectivity ratio for beta 3 over beta 1 AR (S beta3/beta1). Type of experiment: protein assay.

Sequence of Beta-2 adrenergic receptor (P07550 whole entry): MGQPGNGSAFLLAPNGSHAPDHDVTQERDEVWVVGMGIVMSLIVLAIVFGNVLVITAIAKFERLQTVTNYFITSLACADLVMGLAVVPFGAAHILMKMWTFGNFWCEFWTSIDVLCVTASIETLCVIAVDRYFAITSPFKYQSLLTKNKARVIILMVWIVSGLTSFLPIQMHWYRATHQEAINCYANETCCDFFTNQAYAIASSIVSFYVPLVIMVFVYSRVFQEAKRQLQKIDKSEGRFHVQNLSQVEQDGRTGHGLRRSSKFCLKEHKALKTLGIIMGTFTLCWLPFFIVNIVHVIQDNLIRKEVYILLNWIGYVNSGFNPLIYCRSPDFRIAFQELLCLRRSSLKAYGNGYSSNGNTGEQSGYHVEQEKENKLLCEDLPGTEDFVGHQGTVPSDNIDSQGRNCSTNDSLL
Sequence of Adrenergic receptor beta; ADRB1 & ADRB3 (Homo sapiens) (P08588 whole entry, looked up): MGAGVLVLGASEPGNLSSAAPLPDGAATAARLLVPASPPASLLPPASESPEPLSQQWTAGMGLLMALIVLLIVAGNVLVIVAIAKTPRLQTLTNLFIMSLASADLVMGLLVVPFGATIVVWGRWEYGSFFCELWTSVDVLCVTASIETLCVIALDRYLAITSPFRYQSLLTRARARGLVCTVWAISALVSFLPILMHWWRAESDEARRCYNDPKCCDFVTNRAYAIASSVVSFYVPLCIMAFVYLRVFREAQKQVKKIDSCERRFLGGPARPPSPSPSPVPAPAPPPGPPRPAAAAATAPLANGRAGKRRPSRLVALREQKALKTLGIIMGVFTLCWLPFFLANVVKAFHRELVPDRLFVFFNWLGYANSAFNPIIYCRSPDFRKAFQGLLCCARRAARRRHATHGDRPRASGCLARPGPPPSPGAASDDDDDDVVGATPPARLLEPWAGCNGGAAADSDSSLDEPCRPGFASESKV
Sequence of Adrenergic receptor beta; ADRB1 & ADRB3 (Homo sapiens) (P13945 whole entry, looked up): as the sequence (P13945 whole entry) above
Sequence of Beta-1 adrenergic receptor (P08588 whole entry): as the sequence (P08588 whole entry, looked up) above

As a reminder, the EC50 is the concentration needed to bring the measured effect to its halfway point. Low values mean an effect from little substance, high ones a need for much substance. As a reminder, the Ki is the dissociation constant of the complex between target and ligand, obtained from inhibition or displacement. Read a low Ki as higher affinity. In turn, `COC(=O)COc1ccc(C[C@@H](C)NC[C@H](O)c2cccc(Cl)c2)cc1` had a concentration giving a half-maximal response (EC50) in experiment [1] of 420 nM. This compound also yielded an Activity in experiment [2] of 0.69. Moreover, the inhibition constant (Ki) in experiment [3] was found to be 1.15 µM; in experiment [4] it was 3.2 nM; in experiment [6], 0.17 µM. The Selectivity in experiment [5] was determined as 0.0028; in experiment [7], 0.15.
In turn, `C[C@H](Cc1ccc(OCCO)cc1)NC[C@H](O)c1cccc(Cl)c1` returned an EC50 in experiment [1] of 750 nM. In addition, the Activity in experiment [2] was found to be 0.77. Further, the inhibition constant Ki in experiment [3] is 2.14 µM; in experiment [4], 260 nM; in experiment [6] it was 1.25 µM. For the same compound, the Selectivity in experiment [5] was determined as 0.12; in experiment [7], 0.58.
Turning to `C[C@H](Cc1ccc(OCP(C)(=O)O)cc1)NC[C@H](O)c1cccc(Cl)c1`, the figures for the inhibition constant Ki in experiment [3], in experiment [4] and in experiment [6] were 19.9 µM, 73700 nM and 140 µM, respectively. Moreover, the figures for the Selectivity in experiment [5] and in experiment [7] were 3.7 and 7, respectively.
Take `C[C@H](Cc1ccc(OCC(N)=O)cc1)NC[C@H](O)c1cccc(Cl)c1`: the EC50 in experiment [1] was determined as 1610 nM. The Activity in experiment [2] was 0.6. Also, the figures for the inhibition constant (Ki) in experiment [3], in experiment [4] and in experiment [6] were 3.7 µM, 170 nM and 0.59 µM, respectively. Besides, the figures for the Selectivity in experiment [5] and in experiment [7] were 0.046 and 0.16, respectively.
Take `CC(C)OP(=O)(O)COc1ccc(C[C@@H](C)NC[C@H](O)c2cccc(Cl)c2)cc1`: in experiment [1], the EC50 amounted to 610 nM. This compound also came in with an Activity in experiment [2] of 0.59. For the same compound, the Ki was 18.8 µM in experiment [3], 42600 nM in experiment [4] and 139 µM in experiment [6]. The Selectivity in experiment [5] worked out at 2.3; in experiment [7], 7.4.
In experiment [1], `C[C@H](Cc1ccc(OCS(=O)(=O)O)cc1)NC[C@H](O)c1cccc(Cl)c1` gave an EC50 of 60 nM. In experiment [2], the Activity stood at 0.57. Besides, the Ki in experiment [3] was determined as 0.806 µM; in experiment [4] it was 2250 nM; in experiment [6], 7.6 µM. Moreover, the Selectivity in experiment [5] is 2.8; in experiment [7], 9.4.
`C[C@H](Cc1ccc(OCP(=O)(O)O)cc1)NC[C@H](O)c1cccc(Cl)c1` gave a concentration for a half-maximal effect (EC50) in experiment [1] of 2640 nM. In addition, in experiment [2], the Activity stood at 0.53. The inhibitory constant (Ki) was 55.3 µM in experiment [3], 39700 nM in experiment [4] and > 100 µM in experiment [6]. In addition, the results for the Selectivity in experiment [5] and in experiment [7] were 0.72 and > 1.8, respectively.
Regarding `C[C@H](Cc1ccc(OC(C(=O)O)C(=O)O)cc1)NC[C@H](O)c1cccc(Cl)c1`, the values for the Ki in experiment [3], in experiment [4] and in experiment [6] were 11.1 µM, 17100 nM and 243 µM, respectively. The Selectivity worked out at 1.5 in experiment [5] and 22 in experiment [7].
Consider `C[C@H](Cc1ccc(OCC(=O)NO)cc1)NC[C@H](O)c1cccc(Cl)c1`, for which a half-maximal effect in experiment [1] (EC50) was put at 1610 nM. For the same compound, the Activity in experiment [2] came out at 0.66. The figures for the inhibition constant (Ki) in experiment [3], in experiment [4] and in experiment [6] were 1.96 µM, 112 nM and 0.31 µM, respectively. Also, the Selectivity came to 0.057 in experiment [5] and 0.16 in experiment [7].
In turn, `C[C@H](Cc1ccc(OCC(=O)O)cc1)NC[C@H](O)c1cccc(Cl)c1` displayed an Activity in experiment [2] of 0.67.
